Laboratory results reported in publication PMC8115619, “Generation of a chemical genetic model for JAK3” (Scientific Reports, 2021).
“Also recorded” adds a separate entry of the source.

Assays:
[1] = tested on: IL-4 induced STAT6 phosphorylation in wild type BMDMs; assay: Inhibitor washout, IL-4 induced STAT6 phosphorylation, wild type BMDMs; assay type: cell-based, mouse; conditions: for inhibition of IL-4 induced STAT6 phosphorylation after inhibitor washout, wild type BMDMs: washed 3 times in PBS, IL-4 30 min to 2 h after washout, 10 μM TL6-144, 100 μM PF-06651600
Protocol: Covalent inhibitors would be predicted to have very slow off rates and therefore inhibition should remain even if the unbound inhibitors are washed out of the cells. To test this, cells were treated with a high concentration of inhibitor for 2 h before being washed 3 times in PBS and then incubated in media without inhibitor for 0.5 to 24 h. If the inhibitor acts via a non-covalent mechanism, inhibition would not be expected to remain following washout from the cells. Ruxolitinib is a non-covalent pan-JAK inhibitor that can inhibit multiple JAK-STAT pathways in macrophages. […] To confirm this was not the case, similar experiments were done in JAK3 Cys905Ser knockin cells. […] Similar experiments were also carried out with PF-06651600. […] As the level of inhibition was lower at 2 h post washout than 30 min the experiment was repeated to look at 4 and 24 h time points for the washout step.
Figure 4 Effect of inhibitor washout on JAK3 inhibition. BMDMs were isolated from wild type and JAK3 Cys905Ser knockin mice. […] The macrophages were then either stimulated with 10 ng/ml IL-4 for 30 min or washed 3 times in PBS and then incubated in media without inhibitor for the indicated times. The cells were then stimulated with IL-4 for 30 min and STAT6 phosphorylation determined by immunoblotting using levels of ERK1/2 as a loading control.
(§1) Bone marrow derived macrophages (BMDMs) were cultured as described. Briefly, bone marrow was flushed in PBS from the femurs and tibias of mice. Cells were cultured on bacterial grade plastic for 7 days at 37 °C, 5% CO2. Cells were then detached using Versene (Gibco), re-plated on tissue culture plastic in BMDM media (in DMEM supplemented with 10% heat inactivated FBS (Labtech), 2 mM L-glutamine, 100 U/ml penicillin G, 100 μg/ml streptomycin and 0.25 μg/ml amphotericin, 5 ng/ml M-CSF) and used within 48 h. Where indicated cells were stimulated with 10 ng/ml IL-4, 10 ng/ml GM-CSF, 10 ng/ml IL-10 or 10 ng/ml IFNβ. All cytokines were from PeproTech.
(§2) Cells were lysed directly into SDS sample buffer and aliquots run on 10% polyacrylamide gels using standard methods. Proteins were transferred onto nitrocellulose membranes, and specific proteins were detected by immunoblotting. Antibodies against tyrosine phosphorylated STATs were from Cell Signaling Technology (phospho-STAT1 #9167, phospho-STAT3 #9131, phospho-STAT5 #4322 and phospho-STAT6 #9361). The total ERK1/2 antibody used as a loading control was also from cell Signaling Technology (#4695). HRP-conjugated secondary antibodies were obtained from Pierce. Bands were detected using Clarity ECL reagents from BioRad and imaged on a Licor Odyssey Fc system. Quantification was carried out using Licor Image Studio software. After correction for the ERK1/2 levels to account for loading differences, percentage inhibition was calculated relative to the IL-4 stimulated condition. IC50 values were calculated using the same methods as for the in vitro IC50 values.

[2] = tested on: IL-10 induced STAT3 phosphorylation in BMDMs; assay: IL-10 induced STAT3 phosphorylation in macrophages; assay type: cell-based, mouse; conditions: wild type BMDMs, inhibitor 2 h, 10 ng/ml IL-10
Protocol: (A) BMDMs were isolated from wild type mice. Cells were incubated with the indicated inhibitors in μM for 2 h before stimulation with 10 ng/ml IL-4 for 30 min. The levels of phosphorylated STAT6 were then determined by immunoblotting. (B) As (A) except cells were stimulated 10 ng/ml GM-CSF and the levels of phosphorylated STAT5 determined. (C) As (A) except cells were stimulated 10 ng/ml IL-10 and the levels of phosphorylated STAT3 determined. (D) As (A) except cells were stimulated 10 ng/ml IFNβ and the levels of phosphorylated STAT1 determined. For A–D, levels of ERK1/2 were determined as a loading control.
as §1
as §2, with “The total ERK1/2 antibody used as a loading control was also from cell Signaling Technology (#4695). HRP-conjugated secondary antibodies were obtained from Pierce.” left out

[3] = molecular target: ERK5 (Homo sapiens, UniProt Q13164); assay: Selectivity screen ERK5; assay type: biochemical; conditions: 1 µM inhibitor, mean
Protocol: (§3) For the in vitro kinase assay, JAK3 (5–20 mU diluted in 50 mM Tris pH 7.5, 0.1 mM EGTA, 0.05% β-mercaptoethanol, 1 mg/ml BSA) was assayed against PDKtide ([…]) in a final volume of 25.5 µl containing 50 mM Tris pH 7.5, 0.1 mM EGTA, 0.05% β-mercaptoethanol, 100 µM substrate peptide, 10 mM magnesium acetate and 0.02 mM [33P-γ-ATP] (50–1000 cpm/pmole) and incubated for 30 min at room temperature. Assays were started by the addition of the ATP and stopped by addition of 5 µl of 0.5 M (3%) orthophosphoric acid and then harvested onto P81 Unifilter plates with a wash buffer of 50 mM orthophosphoric acid. To determine the Km for ATP, assays were run using 1, 5, 10, 20, 50, 100, 200, 400, 500 μM ATP and Km derived by non-linear regression fitting to the Michaelis–Menten equation v = Vmax[S]/(Km + [S]). IC50 values for inhibitors via non-linear regression using a parameter model: Y = Bottom + (Top–Bottom)/(1 + (IC50/X)^HillSlope). Non-linear regression was carried out in Prism (version 8). In vitro selectivity screen was carried out as described previously.

[4] = molecular target: JNK3 (Homo sapiens, UniProt P53779); assay: Selectivity screen JNK3; assay type: biochemical; conditions: 1 µM inhibitor, mean
JNK3, sequence (P53779 whole entry): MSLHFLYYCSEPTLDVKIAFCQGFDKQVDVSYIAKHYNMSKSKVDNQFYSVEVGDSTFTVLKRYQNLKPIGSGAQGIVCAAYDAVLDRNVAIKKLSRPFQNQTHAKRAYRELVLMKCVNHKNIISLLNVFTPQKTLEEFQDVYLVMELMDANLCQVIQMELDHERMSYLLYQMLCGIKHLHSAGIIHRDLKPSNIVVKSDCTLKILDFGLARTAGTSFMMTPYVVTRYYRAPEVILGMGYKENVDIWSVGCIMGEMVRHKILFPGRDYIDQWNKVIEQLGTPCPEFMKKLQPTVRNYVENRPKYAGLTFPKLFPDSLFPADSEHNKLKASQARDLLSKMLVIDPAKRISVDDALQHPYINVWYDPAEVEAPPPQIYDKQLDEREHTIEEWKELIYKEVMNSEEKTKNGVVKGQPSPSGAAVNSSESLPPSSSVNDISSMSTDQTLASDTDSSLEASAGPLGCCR
Protocol: as §3

[5] = molecular target: Lck (Homo sapiens, UniProt P06239); assay: Selectivity screen Lck; assay type: biochemical; conditions: 1 µM inhibitor, mean
Lck, sequence (P06239 whole entry): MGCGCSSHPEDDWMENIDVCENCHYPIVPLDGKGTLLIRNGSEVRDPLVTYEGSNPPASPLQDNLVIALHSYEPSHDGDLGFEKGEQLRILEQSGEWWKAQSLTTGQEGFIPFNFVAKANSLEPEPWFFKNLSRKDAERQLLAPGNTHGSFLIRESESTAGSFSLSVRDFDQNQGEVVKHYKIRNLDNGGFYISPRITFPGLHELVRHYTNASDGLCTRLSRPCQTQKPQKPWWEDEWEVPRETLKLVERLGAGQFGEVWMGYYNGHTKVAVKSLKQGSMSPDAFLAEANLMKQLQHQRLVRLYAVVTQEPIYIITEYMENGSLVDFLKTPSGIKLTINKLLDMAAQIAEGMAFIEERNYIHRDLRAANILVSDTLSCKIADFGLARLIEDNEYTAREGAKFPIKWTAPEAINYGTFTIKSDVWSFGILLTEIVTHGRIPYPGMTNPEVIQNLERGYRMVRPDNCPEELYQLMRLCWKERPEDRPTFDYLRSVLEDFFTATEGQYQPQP
Protocol: as §3

[6] = molecular target: MEKK1 (Homo sapiens, UniProt Q13233); assay: Selectivity screen MEKK1; assay type: biochemical; conditions: 1 µM inhibitor, mean
MEKK1, sequence (Q13233 whole entry): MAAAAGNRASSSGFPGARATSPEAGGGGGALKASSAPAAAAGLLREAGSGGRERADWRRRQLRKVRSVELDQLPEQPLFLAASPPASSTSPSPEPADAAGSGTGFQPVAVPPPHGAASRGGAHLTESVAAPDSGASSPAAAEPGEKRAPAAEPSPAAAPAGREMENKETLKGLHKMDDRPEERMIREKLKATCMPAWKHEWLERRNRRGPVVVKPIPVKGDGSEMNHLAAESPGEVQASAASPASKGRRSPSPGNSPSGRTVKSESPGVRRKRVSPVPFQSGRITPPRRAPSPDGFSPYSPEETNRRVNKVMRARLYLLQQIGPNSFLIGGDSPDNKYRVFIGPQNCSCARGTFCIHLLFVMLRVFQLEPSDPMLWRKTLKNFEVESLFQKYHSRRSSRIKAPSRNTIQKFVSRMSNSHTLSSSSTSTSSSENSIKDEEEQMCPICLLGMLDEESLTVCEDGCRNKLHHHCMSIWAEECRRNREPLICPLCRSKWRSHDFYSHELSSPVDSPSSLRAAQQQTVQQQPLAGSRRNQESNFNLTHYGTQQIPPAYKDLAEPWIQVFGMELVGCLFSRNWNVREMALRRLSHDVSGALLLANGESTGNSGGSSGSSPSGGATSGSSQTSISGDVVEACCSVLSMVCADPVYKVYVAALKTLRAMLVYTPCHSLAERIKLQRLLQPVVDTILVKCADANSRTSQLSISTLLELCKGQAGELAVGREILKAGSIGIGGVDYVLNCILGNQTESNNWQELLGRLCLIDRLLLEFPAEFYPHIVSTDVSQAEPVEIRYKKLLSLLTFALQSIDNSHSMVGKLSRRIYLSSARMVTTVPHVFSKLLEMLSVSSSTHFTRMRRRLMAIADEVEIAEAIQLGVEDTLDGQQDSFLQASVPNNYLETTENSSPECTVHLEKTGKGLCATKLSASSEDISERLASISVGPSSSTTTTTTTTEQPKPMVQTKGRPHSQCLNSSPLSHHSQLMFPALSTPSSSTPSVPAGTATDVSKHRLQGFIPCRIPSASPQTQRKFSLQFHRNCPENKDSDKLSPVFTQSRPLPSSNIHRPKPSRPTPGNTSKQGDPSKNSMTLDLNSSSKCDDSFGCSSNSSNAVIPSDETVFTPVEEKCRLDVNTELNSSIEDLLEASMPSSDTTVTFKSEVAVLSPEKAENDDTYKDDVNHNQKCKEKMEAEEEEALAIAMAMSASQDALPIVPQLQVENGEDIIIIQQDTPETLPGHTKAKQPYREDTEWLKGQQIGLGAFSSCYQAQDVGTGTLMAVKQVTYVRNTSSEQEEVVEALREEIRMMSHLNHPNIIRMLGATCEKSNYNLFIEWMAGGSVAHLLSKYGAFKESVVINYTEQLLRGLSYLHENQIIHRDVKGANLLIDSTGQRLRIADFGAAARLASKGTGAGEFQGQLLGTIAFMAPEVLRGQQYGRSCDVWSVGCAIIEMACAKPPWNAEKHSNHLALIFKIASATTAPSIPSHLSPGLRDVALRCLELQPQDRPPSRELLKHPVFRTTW
Protocol: as §3

[7] = molecular target: MLK1 (Homo sapiens, UniProt P80192); assay: Selectivity screen MLK1; assay type: biochemical; conditions: 1 µM inhibitor, mean
Protocol: as §3

[8] = molecular target: MNK2 (Homo sapiens, UniProt Q9HBH9); assay: Selectivity screen MNK2; assay type: biochemical; conditions: 1 µM inhibitor, mean
MNK2, sequence (Q9HBH9 whole entry): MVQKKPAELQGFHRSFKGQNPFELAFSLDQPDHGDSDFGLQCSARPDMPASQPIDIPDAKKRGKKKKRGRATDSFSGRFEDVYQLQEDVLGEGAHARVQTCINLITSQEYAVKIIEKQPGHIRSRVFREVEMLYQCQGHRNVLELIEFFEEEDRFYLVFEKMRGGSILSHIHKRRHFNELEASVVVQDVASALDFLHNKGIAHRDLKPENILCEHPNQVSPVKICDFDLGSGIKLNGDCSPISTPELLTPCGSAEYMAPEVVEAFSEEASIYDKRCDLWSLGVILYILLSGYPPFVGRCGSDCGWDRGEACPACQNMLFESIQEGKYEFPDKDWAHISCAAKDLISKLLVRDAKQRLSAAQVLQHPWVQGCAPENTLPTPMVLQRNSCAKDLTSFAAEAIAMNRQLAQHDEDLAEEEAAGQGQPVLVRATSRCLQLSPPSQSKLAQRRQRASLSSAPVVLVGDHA
Protocol: as §3

[9] = molecular target: MST3 (Homo sapiens, UniProt Q9Y6E0); assay: Selectivity screen MST3; assay type: biochemical; conditions: 1 µM inhibitor, mean
Protocol: as §3

[10] = molecular target: PAK5 (Homo sapiens, UniProt Q9P286); assay: Selectivity screen PAK5; assay type: biochemical; conditions: 1 µM inhibitor, mean
PAK5, sequence (Q9P286 whole entry): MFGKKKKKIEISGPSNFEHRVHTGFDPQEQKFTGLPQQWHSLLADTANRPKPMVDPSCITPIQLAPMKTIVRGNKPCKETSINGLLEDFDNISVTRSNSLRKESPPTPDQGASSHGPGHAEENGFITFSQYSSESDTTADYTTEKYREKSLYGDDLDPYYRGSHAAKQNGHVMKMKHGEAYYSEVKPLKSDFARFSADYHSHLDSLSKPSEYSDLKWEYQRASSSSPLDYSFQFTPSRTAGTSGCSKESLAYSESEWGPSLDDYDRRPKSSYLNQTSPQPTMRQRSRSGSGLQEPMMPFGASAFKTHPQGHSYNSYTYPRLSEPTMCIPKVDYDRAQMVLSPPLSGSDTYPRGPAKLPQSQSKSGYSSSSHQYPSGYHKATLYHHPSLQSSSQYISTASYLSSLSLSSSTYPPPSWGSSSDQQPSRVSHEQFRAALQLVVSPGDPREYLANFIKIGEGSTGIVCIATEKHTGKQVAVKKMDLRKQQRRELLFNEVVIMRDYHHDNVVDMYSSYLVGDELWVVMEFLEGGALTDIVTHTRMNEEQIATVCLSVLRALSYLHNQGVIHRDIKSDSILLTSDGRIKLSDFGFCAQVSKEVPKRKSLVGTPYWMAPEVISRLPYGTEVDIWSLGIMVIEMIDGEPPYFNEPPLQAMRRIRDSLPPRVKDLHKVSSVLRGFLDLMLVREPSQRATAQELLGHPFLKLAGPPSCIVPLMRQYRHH
Protocol: as §3

[11] = molecular target: PKA (Homo sapiens, UniProt P17612); assay: Selectivity screen PKA; assay type: biochemical; conditions: 1 µM inhibitor, mean
Protocol: as §3

[12] = molecular target: SGK1 (Homo sapiens, UniProt O00141); assay: Selectivity screen SGK1; assay type: biochemical; conditions: 1 µM inhibitor, mean
SGK1, sequence (O00141 whole entry): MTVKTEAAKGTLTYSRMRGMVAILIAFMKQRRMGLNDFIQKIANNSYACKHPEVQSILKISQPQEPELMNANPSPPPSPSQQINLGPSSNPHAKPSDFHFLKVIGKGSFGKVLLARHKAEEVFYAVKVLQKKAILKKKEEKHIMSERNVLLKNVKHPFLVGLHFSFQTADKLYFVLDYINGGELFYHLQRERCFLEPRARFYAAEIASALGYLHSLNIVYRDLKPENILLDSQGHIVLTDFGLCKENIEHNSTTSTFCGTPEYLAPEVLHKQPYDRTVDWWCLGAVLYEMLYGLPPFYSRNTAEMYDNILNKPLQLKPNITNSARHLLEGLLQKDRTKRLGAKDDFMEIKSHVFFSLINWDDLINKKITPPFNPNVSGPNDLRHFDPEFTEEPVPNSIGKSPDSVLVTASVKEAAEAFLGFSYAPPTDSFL
Protocol: as §3

[13] = molecular target: TrkA (Homo sapiens, UniProt P04629); assay: Selectivity screen TrkA; assay type: biochemical; conditions: 1 µM inhibitor, mean
Protocol: as §3

[14] = molecular target: TTK (Homo sapiens, UniProt P33981); assay: Selectivity screen TTK; assay type: biochemical; conditions: 1 µM inhibitor, mean
Protocol: as §3

[15] = molecular target: YES1 (Homo sapiens, UniProt P07947); assay: Selectivity screen YES1; assay type: biochemical; conditions: 1 µM inhibitor, mean
YES1, sequence (P07947 whole entry): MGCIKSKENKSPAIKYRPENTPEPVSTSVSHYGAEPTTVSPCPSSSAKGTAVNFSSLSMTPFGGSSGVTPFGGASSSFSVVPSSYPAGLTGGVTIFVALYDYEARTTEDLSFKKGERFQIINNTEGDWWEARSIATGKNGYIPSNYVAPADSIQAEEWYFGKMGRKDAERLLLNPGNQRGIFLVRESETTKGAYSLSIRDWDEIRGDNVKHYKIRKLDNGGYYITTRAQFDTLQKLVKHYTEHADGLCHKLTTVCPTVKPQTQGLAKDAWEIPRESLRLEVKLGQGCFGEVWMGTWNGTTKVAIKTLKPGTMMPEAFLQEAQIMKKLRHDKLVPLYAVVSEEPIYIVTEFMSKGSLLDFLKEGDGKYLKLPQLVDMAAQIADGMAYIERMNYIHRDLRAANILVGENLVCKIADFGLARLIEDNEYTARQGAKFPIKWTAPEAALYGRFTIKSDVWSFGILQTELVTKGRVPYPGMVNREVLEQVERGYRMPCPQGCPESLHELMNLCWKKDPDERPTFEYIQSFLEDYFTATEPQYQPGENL
Protocol: as §3

[16] = inhibitor 2 h, 0.5 μM Ruxolitinib

SMILES	inhibition of IL-4 induced STAT6 phosphorylation 24 h after inhibitor washout, wild type BMDMs ([1]; 100 μM PF-06651600 for 2 h, washout, 24 h time point)	inhibition of IL-4 induced STAT6 phosphorylation after inhibitor washout, wild type BMDMs [1, 16]	effect on IL-10 signaling (IL-10 induced STAT3 phosphorylation) [2]	effect on IL-10 signaling (IL-10 induced STAT3 phosphorylation) ([2]; listed as PF-0665160)	block of IL-4 induced STAT6 phosphorylation without washout, wild type BMDMs ([1]; inhibitor 2 h, no washout, 0.5 μM Ruxolitinib, 10 μM TL6-144)	activity remaining in the presence of the inhibitor: ERK5 [3]	activity remaining in the presence of the inhibitor: JNK3 [4]	activity remaining in the presence of the inhibitor: Lck [5]	activity remaining in the presence of the inhibitor: MEKK1 [6]	activity remaining in the presence of the inhibitor: MLK1 [7]	activity remaining in the presence of the inhibitor: MNK2 [8]	activity remaining in the presence of the inhibitor: MST3 [9]	activity remaining in the presence of the inhibitor: PAK5 [10]	activity remaining in the presence of the inhibitor: PKA [11]	activity remaining in the presence of the inhibitor: SGK1 [12]	activity remaining in the presence of the inhibitor: TrkA [13]	activity remaining in the presence of the inhibitor: TTK [14]	activity remaining in the presence of the inhibitor: YES1 [15]
C=CC(=O)N1C[C@H](Nc2ncnc3[nH]ccc23)CC[C@@H]1C [PF-06651600, 1-((2S,5R)-5-((7H-Pyrrolo[2,3-d]pyrimidin-4-yl)amino)-2-methylpiperidin-1-yl)prop-2-en-1-one, reference compound]	Some inhibition was retained	retained	did not block	no effect														
C=CC(=O)Nc1cccc(CNc2nc(Nc3ccc(N4CCN(C)CC4)cc3OC)ncc2Cl)c1 [TL6-144]		much lower than in control cells			completely blocked	87	87	77	95	20	70	99	94	104	100	59	96	89
C=CC(=O)Nc1cccc(CNc2nc(Nc3ccc(N4CCOCC4)cc3)ncc2Cl)c1 [TL8-52]			no effect; also recorded: did not block			63	69	73	103	3	66	97	90	74	89	23	49	47
